Assay [1] deals with T1, Tissue alpha-L-fucosidase (Homo sapiens, UniProt P04066).
T1 sequence (P04066 whole entry): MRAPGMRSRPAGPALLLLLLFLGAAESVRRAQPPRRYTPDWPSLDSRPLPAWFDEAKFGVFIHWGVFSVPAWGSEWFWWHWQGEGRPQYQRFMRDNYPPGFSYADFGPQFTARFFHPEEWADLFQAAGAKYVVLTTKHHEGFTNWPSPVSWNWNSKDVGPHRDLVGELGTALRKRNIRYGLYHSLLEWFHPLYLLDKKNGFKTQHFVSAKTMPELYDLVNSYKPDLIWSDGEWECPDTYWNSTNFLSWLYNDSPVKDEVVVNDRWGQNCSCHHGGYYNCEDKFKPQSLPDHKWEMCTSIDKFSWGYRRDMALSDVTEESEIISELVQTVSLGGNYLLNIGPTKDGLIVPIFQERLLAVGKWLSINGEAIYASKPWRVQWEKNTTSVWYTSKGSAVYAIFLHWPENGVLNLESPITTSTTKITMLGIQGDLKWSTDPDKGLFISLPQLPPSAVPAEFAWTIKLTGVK
Briefly: Inhibition of human liver alpha-L-fucosidase.

Another assay has as its target T2, Beta-xylosidase (Thermoanaerobacterium saccharolyticum, UniProt P36906).
T2 sequence (P36906 whole entry): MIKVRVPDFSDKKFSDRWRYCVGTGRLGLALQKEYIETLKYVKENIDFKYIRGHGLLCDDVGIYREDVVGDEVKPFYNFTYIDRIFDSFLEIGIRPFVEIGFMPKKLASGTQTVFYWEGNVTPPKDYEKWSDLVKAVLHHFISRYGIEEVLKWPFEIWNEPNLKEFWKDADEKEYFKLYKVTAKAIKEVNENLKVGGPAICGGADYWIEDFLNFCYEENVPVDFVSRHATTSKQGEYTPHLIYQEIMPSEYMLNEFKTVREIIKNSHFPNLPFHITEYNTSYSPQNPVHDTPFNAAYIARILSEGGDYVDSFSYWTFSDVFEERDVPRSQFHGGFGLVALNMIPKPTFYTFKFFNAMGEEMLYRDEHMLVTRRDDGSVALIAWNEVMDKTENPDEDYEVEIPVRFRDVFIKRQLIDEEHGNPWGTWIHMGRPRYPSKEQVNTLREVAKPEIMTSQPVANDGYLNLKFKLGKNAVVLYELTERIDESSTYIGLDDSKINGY
The experiment in a line: Inhibition of Thermoanaerobacterium saccharolyticum beta-xylosidase.

Take `C[C@H]1[C@@H](O)[C@@H](O)[C@H](O)CN1CCCCCCNS(=O)(=O)c1cccc2c(N(C)C)cccc12`: in assay [1], the Ki amounted to 0.5 µM.

In turn, `CN(C)c1cccc2c(S(=O)(=O)NCCCCCCN3C[C@@H](O)[C@H](O)[C@@H](O)C3)cccc12` yielded a Ki on Beta-xylosidase of 7.6 µM. This counts as single-digit micromolar.

`O[C@H]1[C@H](O)CNC[C@@H]1O` [DIDEOXYIMINOXYLITOL] had a Ki on Beta-xylosidase of 206 µM.

In general, Ki refers to the dissociation constant of the complex between target and ligand, obtained from inhibition or displacement. Read a low Ki as tighter binding.

The record behind these values is ChEMBL document CHEMBL1146112, “Fluorescent glycosidase inhibiting 1,5-dideoxy-1,5-iminoalditols” (Bioorg Med Chem Lett, 2006).
